Changes are numbered by the printed parent chain. Entries after “also recorded” stand apart in the source; their conditions may differ.
Tests used:
[1] = tested on: Fibrobacter succinogenes S85 acetylxylan esterase Axe6B; details: comparison with Axe6A; substrate not stated at the place; cited from earlier work
[2] = target: T1, Fibrobacter succinogenes S85 FSUAxe6B variant E194A (Fibrobacter succinogenes, UniProt C9RS24, E194A); assay: Steady state kinetic analysis, E194A mutant; assay type: biochemical; details: tetra-acetyl-xylopyranoside as substrate, 37° C., 2 μM E194A protein
T1 sequence (C9RS24 30-552 E194A): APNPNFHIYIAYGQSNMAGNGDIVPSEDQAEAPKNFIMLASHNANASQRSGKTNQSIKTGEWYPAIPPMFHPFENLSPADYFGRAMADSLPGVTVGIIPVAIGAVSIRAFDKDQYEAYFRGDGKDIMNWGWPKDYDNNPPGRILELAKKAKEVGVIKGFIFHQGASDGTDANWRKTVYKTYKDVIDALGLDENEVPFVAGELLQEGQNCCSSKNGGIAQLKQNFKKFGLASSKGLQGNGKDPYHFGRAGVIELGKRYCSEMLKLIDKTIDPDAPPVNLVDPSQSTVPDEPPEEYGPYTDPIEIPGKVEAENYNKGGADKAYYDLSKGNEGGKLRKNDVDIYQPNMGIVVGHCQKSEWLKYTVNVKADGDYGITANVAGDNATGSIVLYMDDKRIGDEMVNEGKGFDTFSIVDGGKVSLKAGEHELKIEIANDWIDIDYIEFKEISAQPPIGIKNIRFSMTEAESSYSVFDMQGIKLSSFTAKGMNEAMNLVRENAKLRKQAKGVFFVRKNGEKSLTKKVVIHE
Method: (§1) Site-directed mutagenesis—Site-directed mutagenesis was carried out using the QuikChange Multi Site-Directed Mutagenesis Kit (Stratagene), according to the manufacturer's instructions.
(§2) Enzyme assays and steady state kinetics—Acetylxylan esterase activity was assayed using tetra-acetyl-xylopyranoside (Toronto Research Chemicals Inc., Ontario, Canada) for all proteins in this study, and the released of acetic acid was measured using an acetic acid detection kit (Megazyme, Bray, Ireland) following the manufacturer's instructions. The reduction of NADH was monitored continuously at an absorbance of 340 nm using Synergy 2 Microplate reader (BioTek, Winooski, Vt.) using the path-length correction feature. All assays were carried out at 37° C. […] The concentrations of the ingredients R1 and R2 solutions were pre-determined by the manufacturer (Megazyme). […] For active-site mutants with lower activity, the kinetic parameters were determined at a concentration of 10 μM for E194N protein and 2 μM for E194A, D270N, and D270A proteins, respectively. Initial rates were plotted against the tetra-acetyl-xylopyranoside concentrations, and the kinetic parameters were determined by Michaelis-Menten equation utilizing Graph Pad Prism v5.01.

[3] = target: T2, Fibrobacter succinogenes S85 FSUAxe6B truncational mutant TM1 (CE6+CBM6) (Fibrobacter succinogenes, UniProt C9RS24); assay: Steady state kinetic analysis, truncational mutant TM1; assay type: biochemical; details: tetra-acetyl-xylopyranoside as substrate, 37° C.
T2 construct: primers F1/R2, modified pET-28a, E. coli BL21(DE3), purified
T2 sequence (C9RS24 30-479 limits assumed): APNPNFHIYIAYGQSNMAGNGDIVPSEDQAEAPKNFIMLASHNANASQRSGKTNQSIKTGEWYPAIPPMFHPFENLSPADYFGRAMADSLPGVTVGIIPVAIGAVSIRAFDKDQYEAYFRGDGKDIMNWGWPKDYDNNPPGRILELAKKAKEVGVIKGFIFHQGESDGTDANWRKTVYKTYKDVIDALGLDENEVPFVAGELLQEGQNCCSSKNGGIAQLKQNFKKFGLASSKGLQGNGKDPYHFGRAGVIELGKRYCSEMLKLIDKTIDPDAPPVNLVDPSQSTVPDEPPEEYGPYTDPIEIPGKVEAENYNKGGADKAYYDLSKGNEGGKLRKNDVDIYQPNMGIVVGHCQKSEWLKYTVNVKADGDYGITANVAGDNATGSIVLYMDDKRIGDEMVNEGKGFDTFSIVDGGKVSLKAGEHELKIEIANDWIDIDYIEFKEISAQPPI
Text: (§3) To delineate and investigate the modules present in FSUAxe6B for functional role assignments, a gene truncation strategy was adopted. To create the truncated proteins, the glycines in loop regions were selected as the terminal amino acids of our constructs. The construct TM1 (CE6+CBM6) was designed to investigate the contribution of FPd-1 to the wild-type (WT) protein in terms of its catalytic (esterase) and carbohydrate binding activities. Likewise, TM2 (CE6) was constructed for identifying the role of the putative CBM6 on the two potential functions of the protein. […]
(§4) Assays were carried out at 37° C. […] The concentrations of the ingredients R1 and R2 solutions were pre-determined by the manufacturer (Megazyme). […] Initial rates were plotted against the tetra-acetyl-xylopyranoside concentrations, and the kinetic parameters were determined by Michaelis-Menten equation utilizing Graph Pad Prism v5.01.
(§5) Enzyme assays and steady state kinetics—Acetylxylan esterase activity was assayed using tetra-acetyl-xylopyranoside (Toronto Research Chemicals Inc., Ontario, Canada) for all proteins in this study, and the released of acetic acid was measured using an acetic acid detection kit (Megazyme, Bray, Ireland) following the manufacturer's instructions. […] The concentrations of the ingredients R1 and R2 solutions were pre-determined by the manufacturer (Megazyme). […]

[4] = target: T3, Fibrobacter succinogenes S85 FSUAxe6B variant D270A (Fibrobacter succinogenes, UniProt C9RS24, D270A); assay: Steady state kinetic analysis, D270A mutant; assay type: biochemical; details: tetra-acetyl-xylopyranoside as substrate, 37° C., 2 μM D270A protein
T3 sequence (C9RS24 30-552 D270A): T1 sequence (C9RS24 30-552 E194A) with A165E, D241A
Method: as §1, §2

[5] = tested on: Fibrobacter succinogenes S85 acetylxylan esterase Axe6A; details: from ref. 16; substrate not stated at the place; cited from earlier work
[6] = target: T4, Fibrobacter succinogenes S85 acetylxylan esterase FSUAxe6B (Axe6B, FSU2267), wild-type (WT), SEQ ID NO: 31 (Fibrobacter succinogenes, UniProt C9RS24); assay: Steady state kinetic analysis of acetylxylan esterase activity, FSUAxe6B wild-type (WT); assay type: biochemical; details: tetra-acetyl-xylopyranoside as substrate, 37° C.
T4 sequence (C9RS24 30-552): T1 sequence (C9RS24 30-552 E194A) with A165E
Method: Assays were carried out at 37° C. Five microliters of 1 μM enzyme and 20 μl of R2 enzyme solution (containing acetate kinase, pyruvate kinase, and […] in 100 mM Tris-HCl, pH 7.4, 3 mM MgCl2) were thoroughly mixed. The tetra-acetyl-xylopyranoside was prepared in […] of R1 solution (NADH, ATP, phospho-enol-pyruvate, and pyruvate). The concentrations of the ingredients R1 and R2 solutions were pre-determined by the manufacturer (Megazyme). Both solutions were incubated separately at 37° C. for 3 min to allow equilibration, and then mixed to start the reaction. Initial rates were plotted against the tetra-acetyl-xylopyranoside concentrations, and the kinetic parameters were determined by Michaelis-Menten equation utilizing Graph Pad Prism v5.01.
Enzyme assays and steady state kinetics—Acetylxylan esterase activity was assayed using tetra-acetyl-xylopyranoside (Toronto Research Chemicals Inc., Ontario, Canada) for all proteins in this study, and the released of acetic acid was measured using an acetic acid detection kit (Megazyme, Bray, Ireland) following the manufacturer's instructions. The reduction of NADH was monitored continuously at an absorbance of 340 nm using Synergy 2 Microplate reader (BioTek, Winooski, Vt.) using the path-length correction feature. All assays were carried out at 37° C. […]

[7] = target: T5, Fibrobacter succinogenes S85 FSUAxe6B truncational mutant TM2 (CE6) (Fibrobacter succinogenes, UniProt C9RS24); assay: Steady state kinetic analysis, truncational mutant TM2; assay type: biochemical; details: tetra-acetyl-xylopyranoside as substrate, 37° C., means ± standard errors
T5 construct: primers F1/R3, modified pET-28a, E. coli BL21(DE3), purified
T5 sequence (C9RS24 30-297): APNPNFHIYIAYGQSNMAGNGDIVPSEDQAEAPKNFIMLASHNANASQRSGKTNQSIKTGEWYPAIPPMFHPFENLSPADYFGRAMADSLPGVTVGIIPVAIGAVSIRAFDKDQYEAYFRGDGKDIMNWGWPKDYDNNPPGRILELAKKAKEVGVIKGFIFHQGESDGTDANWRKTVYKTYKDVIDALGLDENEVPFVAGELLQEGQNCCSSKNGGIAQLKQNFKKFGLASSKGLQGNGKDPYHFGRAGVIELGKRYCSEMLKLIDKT
Text: as §3, §4, §5

[8] = target: T6, Fibrobacter succinogenes S85 FSUAxe6B variant E194N (Fibrobacter succinogenes, UniProt C9RS24, E194N); assay: Steady state kinetic analysis, E194N mutant; assay type: biochemical; details: tetra-acetyl-xylopyranoside as substrate, 37° C., 10 μM E194N protein
T6 sequence (C9RS24 30-552 E194N): T1 sequence (C9RS24 30-552 E194A) with A165N
Method: as §1, §2

[9] = target: Fibrobacter succinogenes S85 FSUAxe6B truncational mutant TM5 (FPd-1 domain), SEQ ID NO: 2 (Fibrobacter succinogenes, UniProt C9RS24); assay: Isothermal titration calorimetric (ITC) analysis of TM5 (FPd-1 domain); assay type: binding; details: 25° C., 100 μM protein, 50 mM Na2HPO4—HCl buffer pH 7.0, 100 mM NaCl
Method: Isothermal titration calorimetric analysis was conducted to determine whether the FPd-1 domain can bind to soluble substrates. TM5 was tested for binding with arabinoxylan, xylobiose, and xylopentaose (FIG. 10). If there is binding affinity between two materials, a binding heat that follows a pattern such as that for CaCl2 vs. EDTA in the positive control will be observed.
For isothermal titration calorimetric (ITC) analysis, measurements were performed at 25° C. using a VP-ITC calorimeter (MicroCal, Inc, Northhampton, Mass.) following the manufacturer's recommended procedures. All samples were extensively dialyzed against 50 mM Na2HPO4—HCl buffer (pH 7.0), 100 mM NaCl, and all ligands were dissolved in the same buffer. The protein sample (100 μM) was injected with successive 10-μl aliquots of ligand at 300-s intervals.

SMILES	Km [1] [µM]	kcat [2] [s⁻¹]	kcat/Km [2] [M⁻¹ s⁻¹]	kcat/Km [3] [M⁻¹ s⁻¹]	kcat [4] [s⁻¹]	kcat/Km [4] [M⁻¹ s⁻¹]	Km [5] [µM]	kcat/Km [6] [M⁻¹ s⁻¹]	kcat ([6]; means ± standard errors) [s⁻¹]	kcat [7] [s⁻¹]	kcat [8] [s⁻¹]	kcat/Km [8] [M⁻¹ s⁻¹]	ITC binding [9]
CC(=O)O[C@@H]1OC[C@@H](OC(C)=O)[C@H](OC(C)=O)[C@H]1OC(C)=O [tetra-acetyl-xylopyranoside]	60	2.9	14000	170000	1.8	9000	80	190000	15	13	2.8	400	
OC1OC[C@@H](O[C@@H]2OC[C@@H](O)[C@H](O)[C@H]2O)[C@H](O)[C@H]1O (some centres unmarked) [xylobiose]													no significant peaks were observed; also recorded: does not bind
OC1OC[C@@H](O[C@@H]2OC[C@@H](O[C@@H]3OC[C@@H](O[C@@H]4OC[C@@H](O[C@@H]5OC[C@@H](O)[C@H](O)[C@H]5O)[C@H](O)[C@H]4O)[C@H](O)[C@H]3O)[C@H](O)[C@H]2O)[C@H](O)[C@H]1O (some centres unmarked) [xylopentaose]													no significant peaks were observed; also recorded: does not bind

Reference: patent publication US20110237448A1, “CARBOHYDRATE BINDING MODULE WITH AFFINITY FOR INSOLUBLE XYLAN” (The Board of Trustees of the University of Illinois, priority 2009, published 2011)
